Laboratory results as given in patent publication US8563732B2, “Oxyimino compounds and the use thereof” (Shionogi & Co., Ltd., priority 2007, dated 2013).

Columns and labels:
[1] = target: T1, N-type calcium channel (NTCC) (Homo sapiens, UniProt Q00975); assay: FLIPR calcium mobilization assay for N-type calcium channel; assay type: cell-based; conditions: calcium mobilization in vitro assay; differentiated IMR32 cells, 5 μM nitrendipine, 90 mM KCl
T1 construct: host or cells: IMR32 cells, differentiated with dibutyryl cAMP and bromodeoxyuridine
Method: Cell maintenance and differentiation. Unless noted otherwise, cell culture reagents were purchased from Mediatech of Herndon, Md. IMR32 cells (American Type Culture Collection, ATCC, Manassas, Va.) were routinely cultured in growth medium consisting of minimum essential medium containing 10% fetal bovine serum (FBS, Hyclone, Logan, Utah), 100 U/mL penicillin, 100 μg/mL streptomycin, 2 mM L-glutamine, 1 mM sodium pyruvate, and 1×MEM non-essential amino acids. 80-90% confluent flasks of cells were differentiated using the following differentiation medium: Growth medium plus 1 mM dibutyryl cyclic AMP (Sigma, St. Louis, Mo.), and 2.5 μM bromodeoxyuridine (Sigma). Cells were differentiated for 8 days by replacing differentiation medium every 2-3 days.
FLIPR Calcium Mobilization Assay for N-type Calcium Channel. One day prior to performing this assay, differentiated IMR32 cells were treated with 1× CellStripper, and seeded on poly-D-lysine-coated 96-well clear-bottom black plates (Becton Dickinson, Franklin Lakes, N.J.) at 200,000 cells/well. […] Plates were then transferred to a Fluorimetric Imaging Plate Reader (FLIPR^96, Molecular Devices, Inc., Sunnyvale, Calif.) for assay. The FLIPR measured basal Fluo-4 fluorescence for 315 seconds (i.e., 5 minutes and 15 seconds), then added 0.1 mL KCl agonist dissolved in IMR32 buffer and measured fluorescence for another 45 seconds. Final test compound concentrations on the cells after FLIPR read ranged from about 846 pM to about 17 μM, final nitrendipine concentration was 5 μM, and final KCl concentration was 90 mM. Data were collected over the entire time course and analyzed using Excel, Graph Pad Prism (version 3.02, Graph Pad, San Diego, Calif.), or an in-house non-linear regression analysis software.

[2] = target: T2, L-type calcium channel (LTCC) (Rattus norvegicus, UniProt P22002); assay: FLIPR calcium mobilization assay for L-type calcium channel; assay type: cell-based; conditions: calcium mobilization in vitro assay; HEK293 cells expressing recombinant rat LTCC subunits (α1c, α2δ, β1), 90 mM KCl
T2 construct: The 6.5 kb cDNA encoding the L-type calcium channel α1c subunit was cloned by PCR amplification from rat heart cDNA; expressed in transfected cells
Method: Recombinant human embryonal kidney cells (HEK293, ATCC) stably transfected with either N-type calcium channel (NTCC) subunits (α1b, α2δ, and (β3) or L-type calcium channel (LTCC) subunits (α1c, α2δ, and β1) were routinely cultured in growth medium consisting of Dulbecco's Modified Eagles Medium containing 10% FBS, 100 U/mL penicillin, 100 μg/mL streptomycin, 4 mM L-glutamine, 500 μg/mL geneticin (G418), 20 μg/mL Blasticidin S (InVivogen, San Diego, Calif.) and 500 μg/mL zeocin (InVivogen).
FLIPR Calcium Mobilization Assay for L-type Calcium Channel. One day prior to performing this assay, HEK293 cells stably expressing recombinant rat L-type calcium channel (LTCC) subunits (α1c, α2δ, and β1) were trypsinized, then seeded on poly-D-lysine-coated 96-well clear-bottom black plates (Becton Dickinson, Franklin Lakes, N.J.) at 75,000 cells/well. On the day of the assay, the plates were washed with LTCC wash buffer (127 mM NaCl, 2 mM MgCl2, 700 μM NaH2PO4, 5 mM CaCl2, 5 mM NaHCO3, 8 mM HEPES, 10 mM glucose, pH 7.4), then loaded with 0.1 mL of LTCC wash buffer containing Fluo-4 (3 μM final concentration, Molecular Probes, Eugene, Oreg.). After 1 hour, the cells were washed with 0.1 mL LTCC wash buffer and resuspended in 0.05 mL LTCC assay buffer (same composition as LTCC wash buffer). Plates were then transferred to a FLIPR^96 for assay. The FLIPR measured basal Fluo-4 fluorescence for 15 seconds, then added 0.05 mL of each compound tested diluted in LTCC assay buffer at final concentrations ranging from about 846 pM to about 17 μM. Fluo-4 fluorescence was then measured for 5 minutes. 0.1 mL KCl agonist dissolved in LTCC assay buffer was then added to the cells to produce a final concentration of 90 mM KCl, and fluorescence was measured for another 45 seconds. Data were collected over the entire time course and analyzed using Excel, Graph Pad Prism, or an in-house regression analysis software.

T1 sequence (Q00975 whole entry): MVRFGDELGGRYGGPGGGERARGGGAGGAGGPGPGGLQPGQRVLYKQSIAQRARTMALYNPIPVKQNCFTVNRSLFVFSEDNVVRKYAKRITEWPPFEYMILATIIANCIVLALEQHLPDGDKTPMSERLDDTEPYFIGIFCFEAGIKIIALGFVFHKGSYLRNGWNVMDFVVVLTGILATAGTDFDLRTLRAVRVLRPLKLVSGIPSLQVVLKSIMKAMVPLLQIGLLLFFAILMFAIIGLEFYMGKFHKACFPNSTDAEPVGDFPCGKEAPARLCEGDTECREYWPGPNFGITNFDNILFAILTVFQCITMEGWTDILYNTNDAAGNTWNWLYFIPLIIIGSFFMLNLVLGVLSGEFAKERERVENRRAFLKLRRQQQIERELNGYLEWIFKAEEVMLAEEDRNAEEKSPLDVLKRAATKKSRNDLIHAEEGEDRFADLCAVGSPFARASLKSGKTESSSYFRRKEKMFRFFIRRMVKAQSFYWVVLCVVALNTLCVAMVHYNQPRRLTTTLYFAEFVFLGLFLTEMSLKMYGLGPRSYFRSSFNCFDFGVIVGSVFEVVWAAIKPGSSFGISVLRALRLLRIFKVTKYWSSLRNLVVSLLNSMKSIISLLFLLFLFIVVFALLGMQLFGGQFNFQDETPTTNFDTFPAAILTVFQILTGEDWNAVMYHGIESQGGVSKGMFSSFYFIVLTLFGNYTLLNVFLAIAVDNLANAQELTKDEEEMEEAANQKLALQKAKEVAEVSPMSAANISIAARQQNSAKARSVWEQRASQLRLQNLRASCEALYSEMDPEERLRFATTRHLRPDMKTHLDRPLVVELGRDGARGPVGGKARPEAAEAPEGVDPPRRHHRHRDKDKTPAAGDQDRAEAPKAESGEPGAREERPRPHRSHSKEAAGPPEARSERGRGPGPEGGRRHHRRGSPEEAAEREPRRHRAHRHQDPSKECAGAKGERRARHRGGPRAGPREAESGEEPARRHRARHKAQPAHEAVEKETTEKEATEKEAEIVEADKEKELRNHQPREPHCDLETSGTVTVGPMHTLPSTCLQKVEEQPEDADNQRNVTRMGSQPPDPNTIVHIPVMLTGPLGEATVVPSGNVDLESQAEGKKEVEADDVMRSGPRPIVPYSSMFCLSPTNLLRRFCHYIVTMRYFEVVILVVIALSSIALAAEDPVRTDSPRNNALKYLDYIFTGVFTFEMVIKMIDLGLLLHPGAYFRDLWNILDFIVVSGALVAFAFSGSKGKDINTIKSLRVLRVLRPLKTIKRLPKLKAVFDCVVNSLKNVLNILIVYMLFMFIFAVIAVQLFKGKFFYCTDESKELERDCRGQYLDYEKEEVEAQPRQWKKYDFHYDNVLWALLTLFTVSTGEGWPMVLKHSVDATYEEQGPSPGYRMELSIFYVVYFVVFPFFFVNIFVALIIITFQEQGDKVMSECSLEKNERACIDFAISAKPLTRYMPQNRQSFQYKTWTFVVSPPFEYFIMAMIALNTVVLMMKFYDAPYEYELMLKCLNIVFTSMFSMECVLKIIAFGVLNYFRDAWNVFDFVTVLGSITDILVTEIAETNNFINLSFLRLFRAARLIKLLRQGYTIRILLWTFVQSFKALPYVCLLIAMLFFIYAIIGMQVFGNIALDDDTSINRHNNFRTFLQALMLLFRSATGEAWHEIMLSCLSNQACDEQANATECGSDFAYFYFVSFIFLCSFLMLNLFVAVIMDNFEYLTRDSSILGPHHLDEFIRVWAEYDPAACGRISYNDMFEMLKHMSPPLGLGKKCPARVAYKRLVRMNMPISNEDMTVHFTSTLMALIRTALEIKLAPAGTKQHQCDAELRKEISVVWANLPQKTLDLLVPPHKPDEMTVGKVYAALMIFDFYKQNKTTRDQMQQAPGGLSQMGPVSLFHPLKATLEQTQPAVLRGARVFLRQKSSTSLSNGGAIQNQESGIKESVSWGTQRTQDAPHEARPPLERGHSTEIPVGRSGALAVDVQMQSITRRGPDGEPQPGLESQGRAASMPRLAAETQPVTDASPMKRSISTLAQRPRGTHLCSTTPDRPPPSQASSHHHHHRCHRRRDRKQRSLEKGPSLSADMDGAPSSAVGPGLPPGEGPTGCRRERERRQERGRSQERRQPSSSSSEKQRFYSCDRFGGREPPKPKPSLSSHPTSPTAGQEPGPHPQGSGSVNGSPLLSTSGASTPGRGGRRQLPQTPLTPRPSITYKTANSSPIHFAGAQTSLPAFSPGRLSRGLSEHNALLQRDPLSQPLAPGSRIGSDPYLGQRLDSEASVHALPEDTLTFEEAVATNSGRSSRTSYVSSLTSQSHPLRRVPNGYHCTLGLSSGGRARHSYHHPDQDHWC
T1 sequence (P54289 25-956 partner limits assumed): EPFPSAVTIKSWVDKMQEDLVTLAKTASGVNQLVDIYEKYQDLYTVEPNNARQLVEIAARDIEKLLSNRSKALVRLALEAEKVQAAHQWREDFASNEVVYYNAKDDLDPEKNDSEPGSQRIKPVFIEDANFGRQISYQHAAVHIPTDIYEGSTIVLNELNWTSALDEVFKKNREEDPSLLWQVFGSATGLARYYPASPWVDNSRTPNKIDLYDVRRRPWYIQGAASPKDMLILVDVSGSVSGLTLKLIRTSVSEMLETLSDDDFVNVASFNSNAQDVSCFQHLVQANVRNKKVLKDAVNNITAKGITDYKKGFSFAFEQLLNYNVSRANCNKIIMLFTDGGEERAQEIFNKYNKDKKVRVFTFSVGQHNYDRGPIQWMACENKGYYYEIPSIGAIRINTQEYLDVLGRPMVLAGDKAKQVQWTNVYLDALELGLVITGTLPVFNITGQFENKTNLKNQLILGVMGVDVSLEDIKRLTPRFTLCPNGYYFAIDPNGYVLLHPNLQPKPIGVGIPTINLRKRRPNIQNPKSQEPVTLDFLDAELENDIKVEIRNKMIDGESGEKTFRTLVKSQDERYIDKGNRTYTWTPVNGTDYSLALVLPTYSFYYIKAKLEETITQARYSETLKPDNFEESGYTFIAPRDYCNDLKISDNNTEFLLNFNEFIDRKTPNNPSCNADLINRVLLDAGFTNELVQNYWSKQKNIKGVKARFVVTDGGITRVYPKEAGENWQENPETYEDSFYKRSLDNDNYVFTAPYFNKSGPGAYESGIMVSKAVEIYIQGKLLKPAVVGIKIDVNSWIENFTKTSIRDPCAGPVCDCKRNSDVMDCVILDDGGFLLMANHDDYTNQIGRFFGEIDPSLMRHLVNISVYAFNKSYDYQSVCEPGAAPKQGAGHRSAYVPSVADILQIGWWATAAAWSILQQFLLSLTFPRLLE
T1 sequence (P54289 957-1103 partner limits assumed): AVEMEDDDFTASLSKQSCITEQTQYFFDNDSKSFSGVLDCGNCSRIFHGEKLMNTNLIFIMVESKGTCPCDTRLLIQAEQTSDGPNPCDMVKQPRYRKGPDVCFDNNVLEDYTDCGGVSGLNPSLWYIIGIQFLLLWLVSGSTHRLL
T1 sequence (P54284 whole entry partner): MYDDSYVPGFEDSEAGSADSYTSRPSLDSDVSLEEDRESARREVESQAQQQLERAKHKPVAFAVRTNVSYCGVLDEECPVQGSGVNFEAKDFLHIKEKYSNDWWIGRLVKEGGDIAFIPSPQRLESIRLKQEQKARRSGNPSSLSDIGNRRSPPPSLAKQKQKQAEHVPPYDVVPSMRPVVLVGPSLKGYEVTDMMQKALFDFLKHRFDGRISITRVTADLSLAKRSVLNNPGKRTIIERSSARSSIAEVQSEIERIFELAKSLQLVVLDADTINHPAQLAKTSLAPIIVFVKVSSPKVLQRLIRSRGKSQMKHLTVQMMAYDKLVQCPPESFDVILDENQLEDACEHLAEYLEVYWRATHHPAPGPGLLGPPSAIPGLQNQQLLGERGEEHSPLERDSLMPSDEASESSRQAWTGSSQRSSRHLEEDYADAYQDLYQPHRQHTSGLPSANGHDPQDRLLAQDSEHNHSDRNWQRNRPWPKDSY

| IC50 [1] [nM] | IC50 [2] [nM] | SMILES |
| --- | --- | --- |
| 100 | > 20000 | O=S(=O)(c1ccc(OC(F)(F)F)cc1)N1CCC(ON=C(c2ccc(F)cc2)c2ccc(F)cc2)CC1 [Example 3, Bis(4-fluorophenyl)methanone O-1-(4-(trifluoromethoxy)phenylsulfonyl)piperidin-4-yl oxime] |
| 200 | > 20000 | N#Cc1cccc(C(=NOC2CCN(S(=O)(=O)c3ccc(OC(F)(F)F)cc3)CC2)C2CC2)c1 (racemic) [Example 2, 3-(Cyclopropyl(1-(4-(trifluoromethoxy)phenylsulfonyl)piperidin-4-yloxyimino)methyl)benzonitrile] |
| 180 | > 20000 | C/C(=N\OC1CCN(S(=O)(=O)c2ccc(OC(F)(F)F)cc2)CC1)c1cccc(C#N)c1 [Example 4, (E)-3-(1-(1-(4-(Trifluoromethoxy)phenylsulfonyl)piperidin-4-yloxyimino)ethyl)benzonitrile] |
